Test results taken from patent US8138196B2, “Antifungal wallboards and building materials and methods for the production thereof” (Syngenta Crop Protection, Inc., priority 2005, dated 2012).

How the values were obtained:
Assay type in all cases: cell-based
[1] = system: Alternaria tenuissima (DSM 63360); assay: Example 4 liquid culture assay on 24 and 48 well plates, 3 way mixtures; details: A. tenuissima
Excerpt: (§1) For test 006-2005: Alternaria tenuissima (DSM 63360), Penicillium chrysogenum (DSM 895), Cladosporium cladosporoides (DSM62121), Aspergillus niger (DSM 63263), Aspergillus versicolor (DSM 1943) and Aureobasidium pullulans (ATCC 15233) were separately cultivated on PDA media to […] sporulation. Spore suspensions were produced for each fungus. Spore concentrations of approx. 100,000 spores/ml were used.
(§2) […] Spore suspensions were produced for each fungus. Spore concentrations of approx. 100,000 spores/ml were used.
(§3) Test method used: liquid culture assay on 24 and 48 well plates respectively.
(§4) For testing of the 3 way mixtures each of the formulated fungicide (100 ul) was filled into the 24 and 48 well plates respectively. Afterwards 700 ul of 0.3% AE media was added to the plate. The spore suspension of the specific fungi was added to this media in advance containing approx. 100,000 spores/ml. For testing the solo compounds the equivalent of distilled water was added instead of the formulated fungicide volume of the mixing partners. The plates were then sealed and incubated at 24° C.
(§5) Dependent on the growth properties of each organisms, the evaluation was done after 3 to 6 days, when the surface of the check well was covered with mycelium. The evaluation was performed by assessing the growth of the fungi related to the check growth. The results are expressed as % activity relative to the check (values of 0-100% growth). Afterwards the results were converted in % growth inhibition.
(§6) For the mixtures of different fungicides the synergism was calculated based on the Colby equation, which is described above.

[2] = system: Aspergillus niger (DSM 63263); assay: as above; details: A. niger
Excerpt: as §1
For test 015-2006: Alternaria tenuissima (DSM 63360), Penicillium pinophilum (CBS342.61), Gliocladium virens (DSM1963), Aspergillus niger (DSM 63263), Stachybotrys chartarum (DSM 2144) and Aureobasidium pullulans (ATCC 15233) were separately cultivated on PDA media to […] sporulation. Spore suspensions were produced for each fungus. Spore concentrations of approx. 100,000 spores/ml were used.
as §3, §4, §5, §6

[3] = system: Stachybotrys chartarum (DSM 2144); assay: as above; details: test 015-2005, S. chartarum
Method: as §2, §3, §4, §5, §6

[4] = system: Aspergillus versicolor (DSM 1943); assay: as above; details: test 006-2005, A. versicolor
Excerpt: as §1, §3, §4, §5, §6

[5] = system: Alternaria tenuissima (DSM 63360); assay: Example 3 liquid culture assay on 24 well plates, solo and 2-way mixtures
Excerpt: (§7) Alternaria tenuissima (DSM 63360), Penicillium chrysogenum (DSM 895), Stachybotrys chartarum (DSM2144), Aspergillus niger (DSM 63263), Aspergillus versicolor (DSM 1943) and Aureobasidium pullulans (ATCC 15233) were separately cultivated on PDA media to […] sporulation. Spore suspensions were produced for each fungi. Spore concentrations of approx. 100.000 spores/ml were used.
(§8) Test method used: liquid culture assay on 24 well plates.
(§9) For solo (i.e. single) ai testing the formulated fungicide (100 ul) was filled into the 24 well plates and 100 ul distilled water was added. Afterwards 800 ul of 0.3% AE media was added to the plate. The spore suspension of the specific fungi was added to this media in advance containing approx. 100,000 spores/ml. The 24 well plates were sealed and incubated at 24° C.
(§10) Dependent on the growth properties of each organisms, the evaluation was done after 3 to 6 days, when the surface of the check well was covered with mycelium. The evaluation was performed by assessing the growth of the fungi related to the check growth. The results are expressed as % activity relative to the check (values of 0-100% growth). Afterwards the results were converted in % O growth inhibition.
(§11) For synergism testing of the 2-way mixtures 100 ul of each fungicide were filled into 24 well plates and 800 ul of 0.3% AE media containing the spore suspension was added. Different ratios of the 2 fungicide rates were tested at the same time.
(§12) For the mixtures of different fungicides the synergism was calculated based on the Colby equation, which is described below: […]
(§13) The fungicidal action to be expected, We, for a given combination of two fungicides can be calculated as follows (see COLBY, S. R. “Calculating synergistic and antagonistic response of herbicide combinations”. Weeds 15, pages 20-22; 1967): We=X+[Y×(100−X)/100] wherein: • X=% activity in the case of treatment with the compound of formula I at rate x, in comparison with untreated control (=0%). • Y=% activity in the case of treatment with a compound of formula II at rate y, in comparison with untreated control. • We=expected activity (% activity in comparison with untreated control) after treatment with the compound of formula I and a compound of formula II at a rate of x+y kg of active ingredient.
(§14) If the activity actually observed is greater than the expected value We (factor observed activity/expected activity >1.2), there is a synergistic effect.

[6] = system: Aspergillus niger (DSM 63263); assay: as above; details: test 006-2005
Excerpt: as §7, §8, §9, §10, §11, §12, §13, §14

[7] = system: Penicillium chrysogenum (DSM 895); assay: as above; details: test 006-2005
Excerpt: as §7, §8, §9, §10, §11, §12, §13, §14

[8] = system: Aspergillus versicolor (DSM 1943); assay: as above; details: test 006-2005; rate (FDL) 0.05 mg ai/l
Excerpt: as §7, §8, §9, §10, §11, §12, §13, §14

Compound: N#Cc1c[nH]cc1-c1cccc2c1OC(F)(F)O2 [Fludioxonil]
- inh % (FDL alone) ([1]; test 006-2005, FDL 0.2 mg ai/l): 50%
- inh % (FDL alone) ([1]; test 006-2005, FDL 0.8 mg ai/l): 70%
- inh % (FDL alone) ([1]; test 006-2005, FDL 1.6 mg ai/l): 70%
- inh % (FDL alone) ([1]; test 015-2005, FDL 0.8 mg ai/l): 50%
- inh % (FDL alone) ([1]; test 015-2005, FDL 1.6 mg ai/l): 50%
- inh % (FDL alone) ([2]; test 006-2005, FDL 0.8 mg ai/l): 50%
- inh % (FDL alone) ([2]; test 015-2005, FDL 0.8 mg ai/l): 50%
- inh % (FDL alone) ([2]; test 015-2005, FDL 1.6 mg ai/l): 50%
- inh % (FDL alone) ([2]; test 015-2005, FDL 3.1 mg ai/l): 50%
- inh % (FDL alone) ([3]; FDL 0.05 mg ai/l): 10%
- inh % (FDL alone) ([3]; FDL 0.2 mg ai/l): 50%
- inh % (FDL alone) ([4]; FDL 0.2 mg ai/l): 0%
- inh % (FDL alone) ([4]; FDL 0.8 mg ai/l): 0%
- inh % (FDL alone) ([4]; FDL 1.6 mg ai/l): 0%
- inh % (FDL alone) ([5]; test 006-2005, rate (FDL) 0.2 mg ai/l): 70%
- inh % (FDL alone) ([5]; test 015-2005, rate (FDL) 0.2 mg ai/l): 30%
- inh % (FDL alone) ([5]; test 015-2005, rate (FDL) 0.4 mg ai/l): 30%
- inh % (FDL alone) ([5]; test 015-2005, rate (FDL) 0.8 mg ai/l): 30%
- inh % (FDL alone) ([5]; test 015-2005, rate (FDL) 1.6 mg ai/l): 50%
- inh % (FDL alone) ([5]; test 015-2005, rate (FDL) 3.1 mg ai/l): 50%
- inh % (FDL alone) ([5]; test 015-2005, rate (FDL) 6.25 mg ai/l): 50%
- inh % (FDL alone) ([5]; test 015-2005, rate (FDL) 12.5 mg ai/l): 70%
- inh % (FDL alone) ([5]; test 015-2005, rate (FDL) 25 mg ai/l): 70%
- inh % (FDL alone) ([5]; test 015-2005, rate (FDL) 50 mg ai/l): 70%
- inh % (FDL alone) ([5]; test 015-2005, rate (FDL) 100 mg ai/l): 70%
- inh % (FDL alone) ([5]; test 015-2005, rate (FDL) 200 mg ai/l): 50%
- inh % (FDL alone) ([6]; rate (FDL) 0.2 mg ai/l): 50%
- inh % (FDL alone) ([6]; rate (FDL) 0.8 mg ai/l): 70%
- inh % (FDL alone) ([6]; rate (FDL) 1.6 mg ai/l): 70%
- inh % (FDL alone) ([6]; rate (FDL) 3.12 mg ai/l): 70%
- inh % (FDL alone) ([6]; rate (FDL) 12.5 mg ai/l): 70%
- inh % (FDL alone) ([7]; rate (FDL) 0.05 mg ai/l): 0%
- inh % (FDL alone) ([7]; rate (FDL) 0.2 mg ai/l): 50%
- inh % (FDL alone) [8]: 10%
